Assay [1] concerns Wnt-responsive promoter (Sp5-Luc reporter) in SW480 colon carcinoma cells. Kind of assay: Sp5-Luc reporter gene screening assay for Wnt activity in SW480 cells. The format is cell-based, human. The settings on record: 36 to 48 hours, luminescence. The gist of the method:
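SW480 cells stably carrying a luciferase reporter under an Sp5 promoter with eight TCF/LEF sites, plated at 4,000 cells/well in DMEM with 1% FBS and incubated 36 to 48 hours at 37° C. Luminescence normalized to DMSO-only cells; EC50 fitted by four-parameter nonlinear regression.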

Assay [2] deals with recombinant GSK3β kinase (Homo sapiens (Human), UniProt P49841). Kind of assay: GSK3β kinase assay (Ser/Thr 09 peptide Z-lyte, FRET). In kind it is biochemical. The settings on record: GSK3β kinase, 46 μM ATP, one hour; method calls values IC50.
recombinant GSK3β kinase, sequence (P49841 whole entry): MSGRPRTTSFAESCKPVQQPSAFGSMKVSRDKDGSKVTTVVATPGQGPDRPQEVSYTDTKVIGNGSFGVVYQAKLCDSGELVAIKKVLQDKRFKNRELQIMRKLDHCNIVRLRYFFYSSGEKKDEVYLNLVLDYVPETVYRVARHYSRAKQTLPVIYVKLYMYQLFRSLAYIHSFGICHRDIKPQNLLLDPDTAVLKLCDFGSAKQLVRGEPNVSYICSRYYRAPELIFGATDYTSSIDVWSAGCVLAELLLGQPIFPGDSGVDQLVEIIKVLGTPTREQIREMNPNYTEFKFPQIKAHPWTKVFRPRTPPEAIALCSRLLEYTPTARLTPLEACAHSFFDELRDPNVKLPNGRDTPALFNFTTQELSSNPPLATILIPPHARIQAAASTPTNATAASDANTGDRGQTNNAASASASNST
Assay [3] relates to Tau phosphorylation at Ser396 (pSer396). Kind of assay: Tau phosphorylation (pSer396) assay in SH-SY5Y cells. In kind it is cell-based, human.
Protocol: Two days before treatment, cells were seeded onto 96 well plates at 5×10^4 cells/well.
The above synthesized compounds were screened using the cell assay procedure to assess decrease Tau phosphorylation at Ser396 (pSer396) described below.
Cells were lysed with RIPA buffer complemented with phosphatase and protease inhibitors then lysates were spun down at 12,000 g for 10 min to remove any cellular debris.
Assay [4] relates to SW480 colon carcinoma cells. Kind of assay: Cell viability assay (CellTiter-Glo) in SW480 cells. The format is cell-based, human. The settings on record: four days.
Assay [5] concerns primary human fibroblasts derived from IPF patients (LL29 cells), α-smooth muscle actin. Kind of assay: Inhibition of fibrotic process: αSMA in TGF-β1 treated LL29 fibroblasts. The format is cell-based. The settings on record: for EC50: LL29 cells, TGF-β1 20 ng/mL, 4 days, % cells positive for αSMA. The gist of the method:
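LL29 fibroblasts from IPF patients, in F12 medium with 1% FBS, treated with TGF-β1 plus compound; TGF-β1 with DMSO as positive control, DMSO alone as negative control. After 4 days' incubation, SYTOX green nucleic acid stain added at 1 μM final, 30 min at room temperature.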

For assay [6], the system named is IL-6. Kind of assay: IL-6 inhibition in LPS-stimulated human peripheral blood mononuclear cells (HTRF). As to conditions: for EC50: huPBMCs, LPS 50 ng/mL, 22 hours, IL-6 HTRF; for inhibition at 10 µM: read-out: percent inhibition at 10 μM. In kind it is cell-based. Put shortly:
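Fresh human PBMCs at 1×10e6 cells/mL in 1% FBS-RPMI were pretreated with compound for 2 h, then stimulated with 50 ng/mL E. coli 0111:B4 LPS for a further 22 h at 37 °C. IL-6 was measured by HTRF (665/620 nm ratio). Values were normalized to DMSO and fitted 4-parameter for EC50.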

In assay [7] the target is recombinant DYRK1A kinase (Homo sapiens (Human), UniProt Q13627). Kind of assay: DYRK1A kinase assay (Ser/Thr 18 peptide Z-lyte, FRET). As to conditions: DYRK1A kinase, 30 μM ATP, one hour; method calls values IC50.
Protocol: Each compound was dissolved in DMSO as a 10 mM stock and used to prepare compound source plates.
This is a non-radioactive assay using fluorescence resonance energy transfer (FRET) between coumarin and fluorescein to detect kinase activity which is represented as a ratio of coumarin emission/fluorescein emission.
The mixture was allowed to incubate with the representative compounds for one hour at room temperature. All reactions were performed in duplicate. Unphosphorylated (“0% Control”) and phosphorylated (“100% control”) forms of Ser/Thr 18 served as control reactions. Additionally, an 11-point dose-response curve of Staurosporine (1 uM top) was run to serve as a positive compound control.
After incubation, Development Reagent A was diluted in Development Buffer then added to the reaction and allowed to further incubate for one hour at room temperature.
Dose-response curves were generated and inhibitory concentration (IC50) values were calculated using non-linear regression curve fit in the Dotmatics' Studies Software (Bishops Stortford, UK).
[8] abbreviates: Homo sapiens, SH-SY5Y cells, overnight (16-18 h), pSer396 Tau ELISA, read-out: EC50.

The record followed here is US10744128B2, “6-(5-membered heteroaryl)isoquinolin-3-yl-(5-membered heteroaryl) carboxamides and preparation and use thereof” (Samumed, LLC, priority 2017, dated 2020).

Where two headings read alike, the source gives them in different places.

One may read the EC50 as the midpoint of the concentration-response curve. Usually inhibition stands for the share of the control response that was lost under treatment.

`Cn1cc(-c2ccc3cnc(NC(=O)c4cnn(C5CCNCC5)c4)cc3c2)cn1` [Compound 2, N-(6-(1-methyl-1H-pyrazol-4-yl)isoquinolin-3-yl)-1-(piperidin-4-yl)-1H-pyrazole-4-carboxamide]: the EC50 in assay [1] (Homo sapiens) was determined as 27 nM; in assay [2], 1040 nM; in assay [3] (setting [8]), 99 nM; in assay [4] (Homo sapiens, 96 h), 38 nM; in assay [5] (Homo sapiens, Fibroblast, 96 h), 93 nM; in assay [6] (Homo sapiens, PBMC), 114 nM. The EC50 in assay [7] was determined as 2 nM.
For the molecule `CC(C)N1CCC(n2cc(C(=O)Nc3cc4cc(-c5cnn(C)c5)ccc4cn3)cn2)CC1` [Compound 8, 1-(1-isopropylpiperidin-4-yl)-N-(6-(1-methyl-1H-pyrazol-4-yl)isoquinolin-3-yl)-1H-pyrazole-4-carboxamide], the EC50 stood at 11 nM in assay [1] (Homo sapiens); 780 nM in assay [2]; 27 nM in assay [3] (setting [8]); 59 nM in assay [4] (Homo sapiens, 96 h); 72 nM in assay [5] (Homo sapiens, Fibroblast, 96 h); 504 nM in assay [6] (Homo sapiens, PBMC). Also, the EC50 in assay [7] amounted to 1 nM.
With `CC(C)OC(=O)N1CCC(n2cc(C(=O)Nc3cc4cc(-c5cnn(C)c5)ccc4cn3)cn2)CC1` [Compound 10, isopropyl 4-(4-((6-(1-methyl-1H-pyrazol-4-yl)isoquinolin-3-yl)carbamoyl)-1H-pyrazol-1-yl)piperidine-1-carboxylate], the EC50 in assay [1] (Homo sapiens) came to 55 nM; in assay [2], 4180 nM; in assay [3] (setting [8]), 64 nM; in assay [4] (Homo sapiens, 96 h), 105 nM; in assay [5] (Homo sapiens, Fibroblast, 96 h), 62 nM; in assay [6] (Homo sapiens, PBMC), 277 nM. In assay [7], the EC50 was determined as 3 nM.
Take `Cc1nnc(C(=O)Nc2cc3cc(-c4cncn4C)ccc3cn2)o1` [Compound 58, 5-Methyl-N-(6-(1-methyl-1H-imidazol-5-yl)isoquinolin-3-yl)-1,3,4-oxadiazole-2-carboxamide]: the EC50 in assay [1] (Homo sapiens) was 1310 nM; in assay [2], 4340 nM; in assay [4] (Homo sapiens, 96 h) it was 2960 nM; in assay [5] (Homo sapiens, Fibroblast, 96 h), 1280 nM; in assay [6] (Homo sapiens, PBMC) it was over 10000 nM; in assay [7], 9 nM. Also, in assay [6] (Homo sapiens, PBMC), the inhibition at 10 µM stood at 9.5%.
With `Cc1nnc(C(=O)Nc2cc3cc(-c4cncn4C)ccc3cn2)s1` [Compound 59, 5-Methyl-N-(6-(1-methyl-1H-imidazol-5-yl)isoquinolin-3-yl)-1,3,4-thiadiazole-2-carboxamide], the EC50 in assay [1] (Homo sapiens) was 1890 nM; in assay [2] it was 1420 nM; in assay [4] (Homo sapiens, 96 h), 3320 nM; in assay [5] (Homo sapiens, Fibroblast, 96 h), 1420 nM; in assay [6] (Homo sapiens, PBMC), over 10000 nM; in assay [7], 4 nM. The inhibition at 10 µM in assay [6] (Homo sapiens, PBMC) stood at 0%.
For `Cc1ncc(-c2ccc3cnc(NC(=O)c4cnn(C)c4)cc3c2)n1C` [Compound 60, N-(6-(1,2-Dimethyl-1H-imidazol-5-yl)isoquinolin-3-yl)-1-methyl-1H-pyrazole-4-carboxamide], the EC50 in assay [1] (Homo sapiens) came out at 121 nM; in assay [2], 4010 nM; in assay [4] (Homo sapiens, 96 h), 405 nM; in assay [5] (Homo sapiens, Fibroblast, 96 h), 770 nM; in assay [6] (Homo sapiens, PBMC), 1580 nM; in assay [7] it was 4 nM.
As to `Cc1ncc(-c2ccc3cnc(NC(=O)c4cnn(C(C)C)c4)cc3c2)n1C` [Compound 61, N-(6-(1,2-Dimethyl-1H-imidazol-5-yl)isoquinolin-3-yl)-1-isopropyl-1H-pyrazole-4-carboxamide], the EC50 in assay [1] (Homo sapiens) amounted to 63 nM; in assay [2] it was 6790 nM; in assay [4] (Homo sapiens, 96 h) it was 111 nM; in assay [5] (Homo sapiens, Fibroblast, 96 h) it was 318 nM; in assay [6] (Homo sapiens, PBMC), 566 nM; in assay [7], 5 nM.
As for `Cc1ncc(-c2ccc3cnc(NC(=O)c4cnn(C5CCN(C)CC5)c4)cc3c2)o1` [Compound 63, N-(6-(2-Methyloxazol-5-yl)isoquinolin-3-yl)-1-(1-methylpiperidin-4-yl)-1H-pyrazole-4-carboxamide], the EC50 in assay [1] (Homo sapiens) was 34 nM; in assay [2], 611 nM; in assay [4] (Homo sapiens, 96 h), 58 nM; in assay [5] (Homo sapiens, Fibroblast, 96 h), 113 nM; in assay [6] (Homo sapiens, PBMC), 298 nM; in assay [7] it was 2 nM.
Turning to `Cc1nnc(-c2ccc3cnc(NC(=O)c4cnn(C5CCN(C)CC5)c4)cc3c2)s1` [Compound 65, N-(6-(5-Methyl-1,3,4-thiadiazol-2-yl)isoquinolin-3-yl)-1-(1-methylpiperidin-4-yl)-1H-pyrazole-4-carboxamide], the EC50 in assay [1] (Homo sapiens) turned out to be 30 nM; in assay [2] it was 628 nM; in assay [4] (Homo sapiens, 96 h) it was 48 nM; in assay [5] (Homo sapiens, Fibroblast, 96 h), 219 nM; in assay [6] (Homo sapiens, PBMC), 361 nM; in assay [7] it was 6 nM.
Take `Cc1nnc(-c2ccc3cnc(NC(=O)c4cnn(C5CCN(C(C)C)CC5)c4)cc3c2)s1` [Compound 66, 1-(1-Isopropylpiperidin-4-yl)-N-(6-(5-methyl-1,3,4-thiadiazol-2-yl)isoquinolin-3-yl)-1H-pyrazole-4-carboxamide]: the EC50 in assay [1] (Homo sapiens) was 34 nM; in assay [2] it was 390 nM; in assay [4] (Homo sapiens, 96 h), 46 nM; in assay [5] (Homo sapiens, Fibroblast, 96 h), 169 nM; in assay [6] (Homo sapiens, PBMC), 893 nM; in assay [7], 4 nM.
Regarding `Cc1nnc(-c2ccc3cnc(NC(=O)c4cn(C5CCN(C)CC5)nn4)cc3c2)s1` [Compound 67, N-(6-(5-Methyl-1,3,4-thiadiazol-2-yl)isoquinolin-3-yl)-1-(1-methylpiperidin-4-yl)-1H-1,2,3-triazole-4-carboxamide], the EC50 is 463 nM in assay [1] (Homo sapiens); 2340 nM in assay [2]; 899 nM in assay [4] (Homo sapiens, 96 h); 4360 nM in assay [5] (Homo sapiens, Fibroblast, 96 h); over 10000 nM in assay [6] (Homo sapiens, PBMC); 31 nM in assay [7]. The inhibition at 10 µM in assay [6] (Homo sapiens, PBMC) worked out at 8.3%.
On to `Cc1nnc(-c2ccc3cnc(NC(=O)c4coc(C5CCNCC5)n4)cc3c2)s1` [Compound 68, N-(6-(5-Methyl-1,3,4-thiadiazol-2-yl)isoquinolin-3-yl)-2-(piperidin-4-yl) oxazole-4-carboxamide], for which the EC50 in assay [1] (Homo sapiens) worked out at 122 nM; in assay [2] it was 666 nM; in assay [4] (Homo sapiens, 96 h), 414 nM; in assay [5] (Homo sapiens, Fibroblast, 96 h), 2580 nM; in assay [6] (Homo sapiens, PBMC), 2640 nM; in assay [7], 74 nM.
`Cc1nnc(-c2ccc3cnc(NC(=O)c4coc(C5CCN(C)CC5)n4)cc3c2)s1` [Compound 69, N-(6-(5-Methyl-1,3,4-thiadiazol-2-yl)isoquinolin-3-yl)-2-(1-methylpiperidin-4-yl)oxazole-4-carboxamide]: the EC50 was 2150 nM in assay [1] (Homo sapiens); 6770 nM in assay [2]; 1290 nM in assay [4] (Homo sapiens, 96 h); over 10000 nM in assay [5] (Homo sapiens, Fibroblast, 96 h); over 10000 nM in assay [6] (Homo sapiens, PBMC); 527 nM in assay [7]. Also, the inhibition at 10 µM in assay [5] (Homo sapiens, Fibroblast, read-out: percent inhibition at 10 μM) turned out to be 43.9%; in assay [6] (Homo sapiens, PBMC), 2.3%.
Turning to `CC(C)n1cc(C(=O)Nc2cc3cc(-c4cncn4C(C)C)ccc3cn2)cn1` [Compound 70, 1-Isopropyl-N-(6-(1-isopropyl-1H-imidazol-5-yl)isoquinolin-3-yl)-1H-pyrazole-4-carboxamide], the EC50 is 115 nM in assay [1] (Homo sapiens); 7080 nM in assay [2]; 132 nM in assay [4] (Homo sapiens, 96 h); 249 nM in assay [5] (Homo sapiens, Fibroblast, 96 h); 1600 nM in assay [6] (Homo sapiens, PBMC); 9 nM in assay [7].
On to `COc1ccc2c(c1)[nH]c1c(C)nccc12` [Harmine, reference compound], for which, in assay [3] (Homo sapiens, SH-SY5Y), the EC50 was over 10000 nM.
Consider `CCN1/C(=C/C(C)=O)Sc2ccc(O)cc21` [Indy, reference compound], for which the EC50 in assay [3] (SH-SY5Y cells, overnight (16-18 h), pSer396 Tau ELISA, read-out: EC50) is over 10000 nM.
“N-(6-(1-(Methyl-d3)-1H-pyrazol-4-yl)isoquinolin-3-yl)-2-(1-methylpiperidin-4-yl)oxazole-4-carboxamide [Compound 17]”: the EC50 turned out to be 111 nM in assay [1]; 2930 nM in assay [2]; 128 nM in assay [4]; 173 nM in assay [5]; 6200 nM in assay [6]; 16 nM in assay [7].
In the case of “N-(6-(1-Methyl-1H-pyrazol-4-yl)isoquinolin-3-yl)-2-(4-methylpiperazin-1-yl)oxazole-5-carboxamide [Compound 15]”, the half-maximal effective concentration (EC50) in assay [1] was determined as 103 nM; in assay [2], 9520 nM; in assay [4], 146 nM; in assay [5], 279 nM; in assay [6] it was 754 nM; in assay [7], 8 nM.
